Patent US20240294587A1, “K-RAS INHIBITOR” (THE JOHNS HOPKINS UNIVERSITY, priority 2021, published 2024)

What was measured:
[1] = test system: S473 AKT phosphorylation in HEK293 cells; experiment: Insulin-induced AKT phosphorylation in HEK293 cells; type: cell-based, human; conditions: peptide included during serum starvation and insulin stimulation (100 nM, 30 min), dose-dependent
Procedure: (§1) FIG. 3A is the amino acid sequence of the C-terminal region of K-Ras 4B—the helix α5 is highlighted and K-tetracosapeptide is underlined. Its predicted structure is shown on the right: positively- and negatively-charged surfaces are highlighted. FLAG-tagged GTP-bound K-Ras 4BG12V was incubated with GDP-loaded GFP-RhoA in the presence of K-tetracosapeptide (K-TC) or a scrambled peptide (50, 250, and 1250 nM). GFP-RhoA was pulled down using GFP-Trap beads. The pellets were analyzed by Western blotting using antibodies to FLAG and GFP (FIG. 3B) and quantified by band intensity (FIG. 3C). Bars are mean±SD (n=3). FIG. 3D is a schematic of the interaction of K-Ras 4B and RhoA in the presence of K-tetracosapeptide (K-TC) or a scrambled peptide. […] S473 AKT phosphorylation was analyzed by Western blotting (FIG. 3E) and band intensity of phospho-AKT relative to total AKT was quantified (FIG. 3F). Bars are mean±SD (n=3). After serum starvation, HEK293 cells were stimulated by insulin. […] S473 AKT phosphorylation was analyzed by Western blotting. (FIG. 3G) and band intensity was quantified (FIG. 3H). […]
Insulin-induced AKT phosphorylation in cells HEK293 cells and differentiated 3T3-L1 adipocytes were washed with serum-free DMEM and incubated with serum-free DMEM for 5 h. […] After clarification, cell lysates were analyzed by Western blotting.

[2] = test system: phosphorylation of AKT and TBC1D4 in 3T3-L1 adipocytes; experiment: Insulin-induced phosphorylation of AKT and TBC1D4 in 3T3-L1 adipocytes; type: cell-based, mouse; conditions: differentiated WT 3T3-L1 adipocytes; peptide pre-treatment 5 h, 100 nM insulin 30 min
Procedure: (§2) Differentiation into adipocytes was induced in WT 3T3-L1 cells and RhoA-KO 3T3-L1 cells expressing the indicated FLAG-RhoA proteins. Differentiation was analyzed Western blotting using anti-adiponectin antibodies (FIG. 6A) and band intensity was quantified (FIG. 6B). Bars are mean f SD (n=3). FIG. 6C is images of WT and RhoA-KO 3T3-L1 cells stained with oil red O before and after induction of the differentiation. FIG. 6D is images RhoA-KO 3T3-L1 cells expressing the indicated RhoA proteins and analyzed by oil red O stain after induction of differentiation. Differentiated WT 3T3-L1 adipocytes were stimulated with insulin after serum starvation in the presence of TAT-K-tetracosapeptide or a TAT peptide. Phosphorylation of AKT and TBC1D4 was analyzed by Western blotting (FIG. 6E) and quantification of band intensity (FIG. 6F). Bars are mean±SD (n=3). […]
(§3) Insulin-induced AKT phosphorylation and translocation of GLUT4 in 3T3-L1 adipocytes To examine AKT phosphorylation, differentiated WT 3T3-L1 adipocytes were incubated in serum-free DMEM medium for 5 h and stimulated with 100 nM insulin for 30 min. […] After clarification, cell lysates were analyzed by Western blotting using antibodies to AKT (Cell Signaling, 9272) and phospho-AKT (Serine 473) (Cell Signaling, 9271). […]

[3] = test system: transport of GLUT4-GFP to the plasma membrane in 3T3-L1 adipocytes; experiment: Insulin-induced translocation of GLUT4-GFP in 3T3-L1 adipocytes (confocal microscopy); type: cell-based, mouse; conditions: 3T3-L1 adipocytes carrying GLUT4-GFP; insulin 30 min after serum starvation
Procedure: as §2, §3

[4] = target: T1, interaction of purified GTP-K-Ras 4B and GDP-RhoA (Homo sapiens, UniProt P61586, G12V); experiment: In vitro protein-protein interaction assay (GFP-Trap pull-down, Western blotting); type: binding; conditions: peptide 50, 250 and 1250 nM, dose-dependent, FLAG-K-Ras 4BG12V pulled down with GFP-RhoA
T1 construct: made in house; host or cells: Dictyostelium cells
T1 sequence (P61586 whole entry G12V): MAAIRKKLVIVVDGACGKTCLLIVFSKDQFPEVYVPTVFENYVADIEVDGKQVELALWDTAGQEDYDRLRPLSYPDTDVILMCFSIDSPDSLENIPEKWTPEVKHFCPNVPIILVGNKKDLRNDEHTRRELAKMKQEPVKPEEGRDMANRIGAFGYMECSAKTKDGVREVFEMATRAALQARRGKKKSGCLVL
Procedure: as §1, with “(n=3).” for “(n=3). FIG. 3D is a schematic of the interaction of K-Ras 4B and RhoA in the presence of K-tetracosapeptide (K-TC) or a scrambled peptide.”, “3F).” for “3F). Bars are mean±SD (n=3). After serum starvation, HEK293 cells were stimulated by insulin.”
FLAG-tagged K-Ras4A and K-Ras 4B were eluted from anti-FLAG beads by incubation with 1 M arginine at room temperature for 5 min. Amounts of purified proteins were quantified on CBB-stained SDS-PAGE gels using ImageJ software with BSA as a standard. […] GFP-Trap beads were washed three times in 1 mM MgCl2, 100 mM potassium acetate, 25 mM HEPES (pH 7.4), and bound proteins were analyzed by Western blotting.

[5] = target: T2, KARATE (mTORC2 mixed with GTP-bound K-Ras 4BG12V and GDP-loaded RhoA) (Homo sapiens, UniProt P61586, G12V); experiment: In vitro reconstitution of mTORC2-mediated AKT phosphorylation; type: biochemical; conditions: S473 AKT phosphorylation by Western blotting; peptide 50, 250 and 1250 nM
T2 construct: made in house; host or cells: K-Ras 4B G12V and RhoA from Dictyostelium cells; AKT1 purchased (Sigma, 14-279)
T2 sequence (P61586 whole entry G12V): as above
Procedure: as §1, with “(n=3).” for “(n=3). FIG. 3D is a schematic of the interaction of K-Ras 4B and RhoA in the presence of K-tetracosapeptide (K-TC) or a scrambled peptide.”, “3F).” for “3F). Bars are mean±SD (n=3). After serum starvation, HEK293 cells were stimulated by insulin.”
In vitro reconstitution of mTORC2-mediated AKT phosphorylation The kinase activity of mTORC1 and mTORC2 was measured as described previously by Huang, Sarbassov dos, and Senoo (Methods Mol Biol 821, 75-86(2012), Methods Mol Biol 821, 59-74(2012), and Nat Cell Biol 21, 867-878(2019), respectively) with some modifications. […] AKT phosphorylation was detected by Western blotting with anti-phospho-AKT (serine 473) antibodies (Cell Signaling, 9271).

Sequence | effect on insulin-stimulated AKT phosphorylation in cells [1] | effect on insulin-induced phosphorylation of AKT [2] | effect on insulin-induced phosphorylation of TBC1D4 [2] | effect on insulin-induced transport of GLUT4-GFP to the plasma membrane [3] | effect on the interaction of purified GTP-K-Ras 4B and GDP-RhoA [4] | effect on AKT phosphorylation in vitro [5]
GRKKRRQRRRPQGVDDAFYTLVREIRKHKEKMSKDG [TAT-K-tetracosapeptide, K-tetracosapeptide fused to a cell-permeable TAT peptide] | blocked in a dose-dependent manner | blocked | blocked | strongly inhibited |  | 
GVDDAFYTLVREIRKHKEKMSKDG [K-tetracosapeptide, peptide of 24 amino acids corresponding to the helix α5 in K-Ras 4B] |  |  |  |  | greatly decreased | blocked
